Tests used:
Sphaerotheca fuliginea = experiment: Cucumber Powdery Mildew (CPM) protectant test in the greenhouse; type: in vivo; conditions: 100 is total disease control, 0 is no disease control; for Cucumber Powdery Mildew (CPM) protectant fungicide data, percent control: 300 g/ha; for pest or weed control at 300 g/ha: Podosphaera fuliginea, topical, 168 h, read-out: Cucumber Powdery Mildew (CPM) protectant fungicide data, percent control
Protocol: Plants used in the fungicide testing program were grown in 2-¼-inch (5.7-cm). square pots containing RediEarth propagation substrate. The plants were raised under greenhouse conditions. The rice plants were 12-days-old and cucumbers were 13-days-old at the time of spraying with chemical treatments.
The sample of the experimental chemical was weighed and dissolved in an acetone-methanol-water solution (A/M/W at 1:1:2 ratio by volume).
After sprayer calibration, the test solutions were poured into the fungicide sprayer. The fungicide sprayer contains three spray nozzles, located approximately 10 cm above and to the sides of the plants. The spray produced by the nozzles results in uniform coverage of both the upper and lower parts of the plant leaves. After spraying, the treated plants were placed in a drying chamber for 4 hours, prior to sorting.
Cucumber Powdery Mildew (CPM), caused by the fungus Sphaerotheca fuliginea, was maintained on large cucumber plants. For inoculum preparation, five to eight leaves depending on size, completely covered with powdery mildew spores, were collected. The leaves were placed in a glass jar and covered with 500 ml of water, containing 5 drops of Tween-80. The material was filtered through two layers of cheesecloth to remove leaf fragments. The spore count was adjusted to 2×10^5 spores per ml.
Cucumber plants, cv. “Bush Champion,” were used for this test. The plants were thinned to one per pot after the cotyledons were fully developed. Two days before the test, the small leaves and meristem region were removed, leaving only the cotyledons and one large true leaf.
The protectant tests required that the cucumber plants be inoculated 1 day after spraying with the chemical treatment. The plants were inoculated with a hand-held spray bottle with the suspension of fungal spores. The leaves were lightly misted on the upper surface from two different spray directions. Disease development occurred in the greenhouse.
After seven days, the plants were evaluated for percent of disease control. The results are reported as percent control; 100 is total disease control, 0 is no disease control.

Pyricularia oryzae = experiment: whole plant or invertebrate; type: in vivo; conditions: 100 is total disease control, 0 is no disease control; for Rice Blast (RB) protectant fungicide data, percent control: 300 g/ha, greenhouse; for pest or weed control at 300 g/ha: Pyricularia oryzae, topical, 144 h, read-out: Rice Blast (RB) protectant fungicide data, percent control, protectant, 300 g/ha, greenhouse

| Compound | Cucumber Powdery Mildew (CPM) protectant fungicide data, percent control (Sphaerotheca fuliginea) [percent control] | Rice Blast (RB) protectant fungicide data, percent control (Pyricularia oryzae) [percent control] | pest or weed control at 300 g/ha (Sphaerotheca fuliginea) [%] | pest or weed control at 300 g/ha (Pyricularia oryzae) [%] |
| --- | --- | --- | --- | --- |
| CCCCN1N=C(c2ccc(Cl)c(Cl)c2)N(C(=O)Oc2ccccc2)CC1=O [Compound 173] | 0 | 50 | – | – |
| C=CCOC(=O)N1CC(=O)N(CC(F)(F)F)N=C1c1cc(Cl)cc(Cl)c1 [Compound 10, 1-(2,2,2-trifluoroethyl)-3-(3,5-dichlorophenyl)-4-allyloxycarbonyl-4,5-dihydro-1,2,4-triazin-6-one] | – | – | 0 | 90 |
| COc1ccc(C2=NN(CC(F)(F)F)C(=O)C(OC)N2)cc1 (centres unmarked) [Compound 39] | 85 | 99 | – | – |
| O=c1cnc(-c2ccc(Cl)cc2)nn1-c1ccccn1 [Compound 261] | 0 | 50 | – | – |
| O=C1CNC(c2cccc(C(F)(F)F)c2)=NN1CC1CC1 [Compound 86] | 80 | 99 | – | – |
| O=C1CNC(c2cccc(C(F)(F)F)c2)=NN1CC(F)(F)F [Compound 153] | 0 | 100 | – | – |
| CCCCN1N=C(C)NC(c2c(C)cc(C)cc2C)C1=O (centres unmarked) [Compound 82] | 25 | 0 | – | – |
| CCOC(=O)Cn1nc(-c2cccc(C)c2)ncc1=O [Compound 275] | 0 | 85 | – | – |
| CCCCN1N=C(c2ccc(Cl)c(Cl)c2)N(C(=O)C2CC2)CC1=O [Compound 181] | 0 | 50 | – | – |
| Cc1ccccc1C1=NN(CC(F)(F)F)C(=O)C(O)N1 (centres unmarked) [Compound 105] | 75 | 85 | – | – |
| C#CCN1CC(=O)N(CCCC)N=C1c1cc(Cl)cc(Cl)c1 [Compound 131] | 75 | 80 | – | – |
| O=C1CNC(c2cccc(Cl)c2)=NN1c1ccccc1 [Compound 111] | 90 | 85 | – | – |
| CCCCCN1N=C(c2cc(Cl)c(C)c(Cl)c2)NCC1=O [Compound 49] | 75 | 95 | – | – |
| O=C1CNC(c2cccc([N+](=O)[O-])c2)=NN1Cc1ccccc1 [Compound 184] | 75 | 85 | – | – |
| CCCCn1nc(-c2ccc(Cl)cc2)ncc1=O [Compound 258] | 75 | 100 | – | – |
| CCCCN1N=C(c2cccc(F)c2)NCC1=O [Compound 221] | 80 | 85 | – | – |
| O=c1[nH]c(-c2cc(Cl)cc(Cl)c2)nn(CC(F)(F)F)c1=O [Compound 21, 1-(2,2,2-Trifluorethyl)-3-(3,5-dichlorophenyl)-1,2,4-triazin-5,6-dione] | 50 | 0 | – | – |

| Compound | Cucumber Powdery Mildew (CPM) protectant fungicide data, percent control (Sphaerotheca fuliginea) [percent control] | Rice Blast (RB) protectant fungicide data, percent control (Pyricularia oryzae) [percent control] | pest or weed control at 300 g/ha (Sphaerotheca fuliginea) [%] | pest or weed control at 300 g/ha (Pyricularia oryzae) [%] |
| --- | --- | --- | --- | --- |
| CCCCN1N=C(c2ccc(Cl)c(Cl)c2)N(C(=O)OCCCl)CC1=O [Compound 179] | 0 | 75 | – | – |
| C=CCSC(=O)N1CC(=O)N(CCCC)N=C1c1ccc(Cl)c(Cl)c1 [Compound 191] | 50 | 95 | – | – |
| CC=CC(=O)N1CC(=O)N(CCCC)N=C1c1ccc(Cl)c(Cl)c1 [Compound 177] | 50 | 95 | – | – |
| CCCCN1N=C(c2c(Cl)cncc2Cl)NCC1=O [Compound 121] | 0 | 80 | – | – |
| CSc1ccc(C2=NN(CC(F)(F)F)C(=O)CN2)cc1 [Compound 147] | 0 | 98 | – | – |
| CCCCN1N=C(c2ccc(C3=NN(CCCC)C(=O)CN3)cc2)NCC1=O [Compound 230] | – | – | 0 | 75 |
| CCCCN1C=C2c3ccccc3OC(=O)N2CC1=O [Compound 25, 3-n-Butyl-3H-9-oxa-3,10a-diaza-phenanthrene-2,10-dione] | – | – | 0 | 75 |
| CCCCN1N=C(c2ccc(-c3ccc(C(=O)OCC)cc3)cc2)NCC1=O [Compound 206] | 80 | 85 | – | – |
| CCCCn1nc(-c2ccc(F)c(Br)c2)ncc1=O [Compound 289] | 50 | 100 | – | – |
| CCCCN1N=C(c2ccccc2OCc2ccccc2)NCC1=O [Compound 213] | 50 | 85 | – | – |
| Cc1ccc(C2=NN(CC(F)(F)F)C(=O)CN2)cc1Cl [Compound 293] | 50 | 100 | – | – |
| O=c1cnc(-c2ccccc2Cl)nn1CC(F)(F)F [Compound 267] | 85 | 80 | – | – |
| O=C1CN(CC2CC2)C(c2cccc(F)c2)=NN1CC1CC1 [Compound 222] | 50 | 0 | – | – |
| CCCCN1N=C(c2cc(Cl)ccc2Cl)NCC1=O [Compound 74] | 0 | 99 | – | – |
| N#CCn1nc(-c2ccc(Cl)cc2)ncc1=O [Compound 264] | 0 | 50 | – | – |
| O=C1CNC(c2ccc(Cl)c(Cl)c2)=NN1CC(F)(F)F [Compound 99] | 80 | 100 | – | – |
| CCCCN1N=C(c2ccc(OC)cc2)NCC1=O [Compound 36] | 50 | 99 | – | – |

— patent US7494996B2 (priority 2000, dated 2009)
